Laboratory results taken from patent US12208118B2, “Pharmaceutical compositions for delivery of peptide” (ANYA BIOPHARM INC., priority 2017, dated 2025).

Tests used:
Human Carboxypeptidase B = molecular target: T1, Human Carboxypeptidase B (Homo sapiens, UniProt P15086); assay: Oxidative inactivation of Carboxypeptidase by combinations of metal salts and reducing agents (enzymatic activity); type: biochemical; conditions: reducing agent 1 mM, metal salt 5 μM, compared with original activity, in % (unit assumed)
T1 sequence (P15086 111-417): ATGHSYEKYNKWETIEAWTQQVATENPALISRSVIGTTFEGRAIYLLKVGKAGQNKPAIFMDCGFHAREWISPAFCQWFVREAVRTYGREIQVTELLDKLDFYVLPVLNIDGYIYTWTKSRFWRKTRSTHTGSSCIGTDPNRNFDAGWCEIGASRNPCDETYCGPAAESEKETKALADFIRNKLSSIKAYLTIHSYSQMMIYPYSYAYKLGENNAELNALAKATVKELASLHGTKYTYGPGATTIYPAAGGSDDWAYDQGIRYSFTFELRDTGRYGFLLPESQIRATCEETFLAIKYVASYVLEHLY
Protocol: (§1) Enzyme Activity Assay: The assay of enzymatic activity of each enzyme in the presence of its specific substrate was performed at a particular wavelength by using UV spectrophotometer, and it served as a negative control. The enzyme activity was calculated as: […]
(§2) Enzyme Inhibition Assay: Incubation was performed with inhibitor of each enzyme, which served as a positive control.
(§3) Incubation with metal ion(s) and reducing agent(s): Incubation of enzymes with combination of metal salt(s) and reducing agent(s) in microtitre 96 well plate was done for a specific period of time in presence of substrates to examine their oxidative inactivation. Inactivation of enzyme in presence of metal ion(s) and reducing agent(s) was compared with the original enzyme activity in the presence of substrate as a negative control and in the presence of inhibitor as a positive control.
Assay for Enzymatic Activity of Carboxypeptidase B Using Hippuryl-Arginine
4 units of Carboxypeptidase B in cold deionized water, 1 mm Hippuryl-Arginine solution in 25 mM Iris Buffer solution containing 100 mM Sodium Chloride (pH 7.65) were prepared, separately at about 25° C. 3 ml reaction mixtures (Test and blank) were prepared using above prepared solutions according to Table 9 at 25° C. […]
(§4) For a 200 μl reaction mixture, about 10 μl Carboxypeptidase was incubated in buffer with the combination of metal salts and reducing agents (provided in Table 2 at serial number 1 through 31) at respective concentration at 37° C. in 96 well microtitre plates (Table 3 hereinabove provides details on utilization of a particular combination from those provided at serial number 1 through 31 in Table 2) for 5 min, 15 min and 30 min followed by the addition of respective 90 μl substrate (provided in Table 1A). The enzyme activity was measured spectrophotometrically in a microplate reader, and was compared with original activity assay. The pH was measured by Hanna Combination pH electrode (reaction with enzyme was performed in triplicates). […]

Porcine Aminopeptidase M = molecular target: T2, Porcine Aminopeptidase M (Sus scrofa, UniProt P15145); assay: Oxidative inactivation of Aminopeptidase by combinations of metal salts and reducing agents (enzymatic activity); type: biochemical; conditions: compared with original activity, in % (unit assumed)
T2 sequence (P15145 1-963): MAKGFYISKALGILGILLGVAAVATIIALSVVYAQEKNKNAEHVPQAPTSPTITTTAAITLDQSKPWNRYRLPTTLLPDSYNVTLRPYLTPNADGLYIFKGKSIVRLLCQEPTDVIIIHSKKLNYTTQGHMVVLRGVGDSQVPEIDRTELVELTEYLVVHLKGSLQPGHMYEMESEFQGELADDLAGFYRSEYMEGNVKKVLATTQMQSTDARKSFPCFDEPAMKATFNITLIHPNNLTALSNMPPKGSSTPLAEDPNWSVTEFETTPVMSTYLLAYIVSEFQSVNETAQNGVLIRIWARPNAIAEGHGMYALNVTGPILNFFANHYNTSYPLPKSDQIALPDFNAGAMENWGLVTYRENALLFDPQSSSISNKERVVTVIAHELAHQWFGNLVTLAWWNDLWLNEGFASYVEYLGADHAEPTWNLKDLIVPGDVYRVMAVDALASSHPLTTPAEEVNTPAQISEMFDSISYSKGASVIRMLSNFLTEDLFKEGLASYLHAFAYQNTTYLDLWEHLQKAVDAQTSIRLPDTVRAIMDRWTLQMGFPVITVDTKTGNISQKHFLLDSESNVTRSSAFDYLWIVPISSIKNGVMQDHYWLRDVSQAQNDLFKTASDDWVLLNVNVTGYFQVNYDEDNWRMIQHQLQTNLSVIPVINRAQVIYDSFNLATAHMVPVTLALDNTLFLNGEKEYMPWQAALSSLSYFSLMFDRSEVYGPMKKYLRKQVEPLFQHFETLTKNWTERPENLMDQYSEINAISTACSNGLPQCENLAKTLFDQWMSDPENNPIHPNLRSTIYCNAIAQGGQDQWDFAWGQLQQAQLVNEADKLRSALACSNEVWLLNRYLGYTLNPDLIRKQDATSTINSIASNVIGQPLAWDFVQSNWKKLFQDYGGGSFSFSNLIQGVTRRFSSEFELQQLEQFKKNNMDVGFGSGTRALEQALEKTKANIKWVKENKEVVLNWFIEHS
Protocol: as §1, §2, §3
To Assay the Enzymatic Activity of Aminopeptidase M Using L-Leucine-p-Nitroanilide
1 mM Tricine solution (Prepared in 100 ml deionized water, Reagent A) and 50 mM L-Leucine-p-nitroanilide solution in absolute methanol (Reagent B) were prepared, separately. […] Reagent G, Reagent E and Reagent F were mixed immediately by inversion to prepare test and blank solution as directed in table 12, and the increase in ΔA405 nm was recorded for approximately 5 minutes. ΔA405 nm/minute was obtained using maximum linear rate for both the Test and blank solution. […]
as §4, with “Aminopeptidase” for “Carboxypeptidase”, “assay.” for “assay. The pH was measured by Hanna Combination pH electrode (reaction with enzyme was performed in triplicates).”

[1] = Quantification of insulin glargine level in STZ induced diabetic rat plasma (Glargine ELISA), bioavailability; type: in vivo, S.D. rats; conditions: following subcutaneous and mid-jejunum administration, rats
Protocol: (§5) Quantification of Glucose & Insulin Glargine Level in STZ Induced Diabetic Rat Plasma
(§6) Glucose & insulin glargine levels in plasma were quantified after dosing several formulations of insulin glargine to mid-jejunum in STZ induced diabetic S.D. rats.
(§7) Test formulation I: Insulin glargine (Lantus®)—Appearance: Solution for injection in a prefilled pen; Concentration: 100 IU/ml; Storage condition: 2-8° C.; Dose: 0.2 U/kg; Route: SC.
(§8) Test formulation II: Insulin glargine Formulation—MIRA 1 (Reduced glutathione/Chromium Picolinate of Table 15A)+Permeation Enhancer 1 (PA 1 of Table 16A) (oral solution in TRIS buffer)—Dose: 1.7 U/animal; Route: mid-jejunum
(§9) Test formulation III: Insulin glargine Formulation—PA 2 (of Table 16B) and MIRA 2 (Ascorbate Sodium/Vanadium Oxide of Table 15B) (oral solution in TRIS buffer)—Dose: 1.7 U/animal; Route: mid-jejunum.
The clinical signs observed are normal. […] Glucose was measured immediately after blood collection using Glucometer. […]
Principle: This Glargine ELISA is a two-site immunoassay, employing a monoclonal antibody immobilised on microtitre wells and a soluble antibody labelled with horseradish peroxidase (HRP). […] The intensity of the colour developed in each well is quantified in a microtitre plate reader set to record transmitted light at a wavelength of 450 nm (Kit Protocol: Used manufacturer recommended protocol Cat. No. MBS495369) […]

[2] = tested on: STZ induced diabetic S.D. rats; assay: Glucose level in STZ induced diabetic rats after different formulations (Glucometer, % inhibition); type: in vivo; conditions: glucose by Glucometer
Protocol: as §5, §6, §7, §8, §9
The clinical signs observed are normal. With respect to sampling time points, during dosing, the blood collection time points was at 0, 20, 40, 60, 120 and 150 minutes post dose. ˜100 μl of blood was collected in a pre-filled Na-EDTA eppendorf, from retro-orbital sinus puncture. Blood was centrifuged at 5000 rpm, 5 min, 4° c. to obtain plasma. Glucose was measured immediately after blood collection using Glucometer.

| Compound | Enzymatic activity of Carboxypeptidase (Human Carboxypeptidase B; incubation 5 min at 37° C.) | Enzymatic activity of Carboxypeptidase (Human Carboxypeptidase B; incubation 15 min at 37° C.) | Enzymatic activity of Carboxypeptidase (Human Carboxypeptidase B; incubation 30 min at 37° C.) | Enzymatic activity of Aminopeptidase (Porcine Aminopeptidase M; Time 5 min incubation at 37° C.) | Enzymatic activity of Aminopeptidase (Porcine Aminopeptidase M; Time 15 min incubation at 37° C.) | Enzymatic activity of Aminopeptidase (Porcine Aminopeptidase M; Time 30 min incubation at 37° C.) | clinical signs [1] | mortality [1] | % inhibition ([2]; 20 min post dose) [%] | % inhibition ([2]; 40 min post dose) [%] | % inhibition ([2]; 60 min post dose) [%] | % inhibition ([2]; 120 min post dose) [%] | % inhibition ([2]; 150 min post dose) [%] |
| --- | --- | --- | --- | --- | --- | --- | --- | --- | --- | --- | --- | --- | --- |
| O=C(/C=C/C=C/c1ccc2c(c1)OCO2)N1CCCCC1 [Piperine] | 104.5 | 91.7 | 62.26 | 108 | 100.4 | 80.52 | – | – | – | – | – | – | – |
| Insulin glargine | – | – | – | – | – | – | normal | no mortality observed | 22.9 | 25.5 | 22 | 39 | 17.2 |
